Data taken from the supplement of paper PMC10307832.

Legend:
Experiment in all cases: relative viability (nuclei count vs DMSO), 5 days (fraction); higher = more cells survive
NCI-H322M = system: NCI-H322M
Summary of the method: (§1)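 Relative viability equals treated-well nuclei counts divided by vehicle-well nuclei counts. Counts came from 4× images of lung cancer cell lines grown in 1536-well plates for 5 days after pin-tool dosing on the day after seeding. Dosing used one drug alone or a fixed anchor-drug dose plus five library-drug doses (not always all listed) in √10 steps, and values are medians of duplicate plates.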

LCLC-103H = system: LCLC-103H
Summary of the method: as §1

EMC-BAC-2 = system: EMC-BAC-2
Summary of the method: as §1

NCI-H2126 = system: NCI-H2126
Summary of the method: as §1

LOU-NH91 = system: LOU-NH91
Summary of the method: as §1

SW 1573 = system: SW 1573
Summary of the method: as §1

RERF-LC-KJ = system: RERF-LC-KJ
Summary of the method: as §1

NCI-H3122 = system: NCI-H3122
Summary of the method: as §1

ChaGo-K-1 = system: ChaGo-K-1
Summary of the method: as §1

LU99A = system: LU99A
Summary of the method: as §1

NCI-H1666 = system: NCI-H1666
Summary of the method: as §1

NC(=O)Nc1cc(-c2cccc(F)c2)sc1C(=O)N[C@H]1CCCNC1 [AZD7762] + O=C(CCCCCCC(=O)Nc1ccccc1)NO [Vorinostat] (partner 1 µM)
relative viability (NCI-H322M; first compound 0.01 µM): 0.822 | relative viability (NCI-H322M; first compound 0.03162 µM): 0.967 | relative viability (NCI-H322M; first compound 0.1 µM): 0.935 | relative viability (NCI-H322M; first compound 0.3162 µM): 0.792 | relative viability (NCI-H322M; first compound 1 µM): 0.478 | relative viability (LCLC-103H; first compound 0.01 µM): 0.857 | relative viability (LCLC-103H; first compound 0.03162 µM): 0.776 | relative viability (LCLC-103H; first compound 0.1 µM): 0.842 | relative viability (LCLC-103H; first compound 0.3162 µM): 0.591 | relative viability (LCLC-103H; first compound 1 µM): 0.69 | relative viability (EMC-BAC-2; first compound 0.01 µM): 0.416 | relative viability (EMC-BAC-2; first compound 0.03162 µM): 0.475 | relative viability (EMC-BAC-2; first compound 0.1 µM): 0.523 | relative viability (EMC-BAC-2; first compound 0.3162 µM): 0.456 | relative viability (EMC-BAC-2; first compound 1 µM): 0.456 | relative viability (NCI-H2126; first compound 0.01 µM): 0.688 | relative viability (NCI-H2126; first compound 0.03162 µM): 0.867 | relative viability (NCI-H2126; first compound 0.1 µM): 0.735 | relative viability (NCI-H2126; first compound 0.3162 µM): 0.773 | relative viability (NCI-H2126; first compound 1 µM): 0.775 | relative viability (LOU-NH91; first compound 0.01 µM): 0.87 | relative viability (LOU-NH91; first compound 0.03162 µM): 0.971 | relative viability (LOU-NH91; first compound 0.1 µM): 0.917 | relative viability (LOU-NH91; first compound 0.3162 µM): 0.741 | relative viability (LOU-NH91; first compound 1 µM): 0.646 | relative viability (SW 1573; first compound 0.01 µM): 1.16 | relative viability (SW 1573; first compound 0.03162 µM): 0.994 | relative viability (SW 1573; first compound 0.1 µM): 0.821 | relative viability (SW 1573; first compound 0.3162 µM): 0.648 | relative viability (SW 1573; first compound 1 µM): 0.102 | relative viability (RERF-LC-KJ; first compound 0.01 µM): 0.749 | relative viability (RERF-LC-KJ; first compound 0.03162 µM): 0.695 | relative viability (RERF-LC-KJ; first compound 0.1 µM): 0.711 | relative viability (RERF-LC-KJ; first compound 0.3162 µM): 0.722 | relative viability (RERF-LC-KJ; first compound 1 µM): 0.601 | relative viability (NCI-H3122; first compound 0.01 µM): 0.936 | relative viability (NCI-H3122; first compound 0.03162 µM): 0.927 | relative viability (NCI-H3122; first compound 0.1 µM): 1.06 | relative viability (NCI-H3122; first compound 0.3162 µM): 0.925 | relative viability (NCI-H3122; first compound 1 µM): 0.973 | relative viability (ChaGo-K-1; first compound 0.01 µM): 0.744 | relative viability (ChaGo-K-1; first compound 0.03162 µM): 0.743 | relative viability (ChaGo-K-1; first compound 0.1 µM): 0.739 | relative viability (ChaGo-K-1; first compound 0.3162 µM): 0.785 | relative viability (ChaGo-K-1; first compound 1 µM): 0.793 | relative viability (LU99A; first compound 0.01 µM): 0.469 | relative viability (LU99A; first compound 0.03162 µM): 0.536 | relative viability (LU99A; first compound 0.1 µM): 0.561 | relative viability (LU99A; first compound 0.3162 µM): 0.345 | relative viability (LU99A; first compound 1 µM): 0.171 | relative viability (NCI-H1666; first compound 0.01 µM): 1.16 | relative viability (NCI-H1666; first compound 0.03162 µM): 1.17 | relative viability (NCI-H1666; first compound 0.1 µM): 1.22 | relative viability (NCI-H1666; first compound 0.3162 µM): 1.21 | relative viability (NCI-H1666; first compound 1 µM): 1.07
